For assay [1], the target named is T1, Alpha-1A adrenergic receptor (Rattus norvegicus, UniProt P43140).
T1 sequence (P43140 whole entry): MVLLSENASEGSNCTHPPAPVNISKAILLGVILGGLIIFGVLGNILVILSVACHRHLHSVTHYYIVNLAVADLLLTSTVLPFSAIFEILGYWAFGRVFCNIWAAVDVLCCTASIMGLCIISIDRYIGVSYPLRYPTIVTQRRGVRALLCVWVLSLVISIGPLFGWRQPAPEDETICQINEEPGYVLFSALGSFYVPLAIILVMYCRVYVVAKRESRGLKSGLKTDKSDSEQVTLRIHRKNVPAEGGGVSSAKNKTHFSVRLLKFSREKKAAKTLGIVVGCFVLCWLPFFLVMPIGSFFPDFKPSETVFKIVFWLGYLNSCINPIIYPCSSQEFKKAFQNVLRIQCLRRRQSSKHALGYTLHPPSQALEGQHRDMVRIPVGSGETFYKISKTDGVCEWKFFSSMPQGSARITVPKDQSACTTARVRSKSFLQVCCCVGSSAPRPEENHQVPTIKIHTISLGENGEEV

Assay [2] has as its target T2, Alpha-2C adrenergic receptor (Rattus norvegicus, UniProt P22086).
T2 sequence (P22086 whole entry): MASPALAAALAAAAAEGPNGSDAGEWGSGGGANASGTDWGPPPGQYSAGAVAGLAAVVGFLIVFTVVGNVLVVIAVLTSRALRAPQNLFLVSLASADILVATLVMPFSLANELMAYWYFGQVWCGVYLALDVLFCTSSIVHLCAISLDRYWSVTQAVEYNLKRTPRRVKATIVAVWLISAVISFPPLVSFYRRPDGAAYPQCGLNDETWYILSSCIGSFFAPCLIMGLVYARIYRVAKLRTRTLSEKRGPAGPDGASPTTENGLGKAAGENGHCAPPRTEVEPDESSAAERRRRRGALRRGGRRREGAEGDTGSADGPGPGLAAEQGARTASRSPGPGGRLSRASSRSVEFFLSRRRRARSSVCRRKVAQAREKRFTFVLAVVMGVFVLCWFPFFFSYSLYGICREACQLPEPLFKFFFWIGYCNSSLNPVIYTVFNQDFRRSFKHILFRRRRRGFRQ

The source of these data is BindingDB's records for doi:10.1016/0014-2999(86)90335-3 (Janssen Pharmaceutica, 1986).

The structures appear in SMILES notation. “And” between values parts separate entries of the source, which are not always exact repeats. Equal entries are not always repeated.

Take `c1ccc2c(c1)OCC(C1=NCCN1)O2` (configuration not stated): in assay [1], the Ki (usually the dissociation constant of the complex between target and ligand, obtained from inhibition or displacement) is 1000 nM.
With `Cc1nc2ccccn2c(=O)c1CCN1CCC(C(=O)c2ccc(F)cc2)CC1`, the Ki in assay [2] was 7.9 nM and 4.5 nM and 18 nM and 20 nM; in assay [1], 20 nM.
As to `CN1CCN(CC/C=C2/c3ccccc3Sc3ccc(S(=O)(=O)N(C)C)cc32)CC1` [MLS000028463], the Ki in assay [2] was 1200 nM and 1400 nM; in assay [1], 25 nM.
In the case of `N#Cc1ccc2c(c1)N(CCCN1CCC(O)CC1)c1ccccc1S2`, affinity in assay [1] was put at a Ki of 4.1 nM.
On the same count and under the same terms, the result for `Cc1nc2n(c(=O)c1CCN1CCC(C(=O)c3ccc(F)cc3)CC1)CCS2` [CAS_86487-64-1] reads 32 nM.
Turning to `Cc1ccc2nc(C)c(CCN3CCC(C(=O)c4ccc(F)cc4)CC3)c(=O)n2c1` [CAS_72005], the Ki was 10 nM and 2.5 nM and 2.8 nM in assay [2]; 7.9 nM in assay [1].
For `CS(=O)(=O)c1ccc2c(c1)N(CCCN1CCC(C(N)=O)CC1)c1ccccc1S2` [NSC_26388], the affinity in assay [1] corresponds to a Ki of 2.5 nM.
On to `CN1C[C@H](C(=O)N[C@]2(C)O[C@@]3(O)[C@@H]4CCCN4C(=O)[C@H](Cc4ccccc4)N3C2=O)C=C2c3cccc4[nH]cc(c34)C[C@H]21` [12'-hydroxy-2'-methyl-5'alpha-(phenylmethyl)ergotaman-3',6',18-trione], for which the Ki is 12 nM and 4 nM and 3.5 nM and 6.3 nM in assay [2]; 25 nM in assay [1].
Turning to `O=C(c1ccc(F)cc1)C1CCN(CCCCn2c(=O)[nH]c3ccccc3c2=O)CC1` [CAS_87051-46-5], the Ki in assay [2] is 500 nM and 400 nM and 66 nM and 60 nM; in assay [1], 0.45 nM.
As to `c1ccc(CC2=NCCN2)cc1` [Tolazoline], the Ki in assay [2] was 450 nM and 120 nM and 890 nM and 500 nM; in assay [1] it was 3200 nM.
As for `O=C(c1ccc(F)cc1)C1CCN(CCn2c(=S)[nH]c3ccccc3c2=O)CC1`, the Ki in assay [2] was 290 nM and 200 nM and 280 nM and 71 nM.
